Here are results for 9 compounds from patent US20240166617A1, “PHOSPHOINOSITIDE 3 KINASE BETA INHIBITORS AND COMPOSITIONS AND METHODS THEREOF” (Geode Therapeutics Inc., priority 2021, published 2024).

Where two headings read alike, the source gives them in different places.

Assay [1] has as its target T1, PIK3Ca_h (Homo sapiens, UniProt P42336).
T1 construct: purchased Eurofins DiscoveRx Corporation
The experiment in a line: Enzyme binding assay (KINOMEscan). Conditions: Eurofins DiscoveRx. The method, then:
(§1) Kinase enzyme binding affinities of compounds disclosed herein were determined using the KINOMEscan technology performed by Eurofins DiscoveRx Corporation, San Diego, California, USA (www.eurofinsdiscoveryservices.com). Table 2 reports the obtained PIK3β Kd values (nM) of, with the PIK3β Kd being the inhibitor binding constant. Table 3 reports the obtained Kd values (nM), with the Kd being the inhibitor binding constant: […]

The target of assay [2] is T2, PIK3Cb_h (Homo sapiens, UniProt P42338).
T2 construct: purchased Eurofins DiscoveRx Corporation
Description: Enzyme binding assay (KINOMEscan). Conditions: Eurofins DiscoveRx. The method, then: as §1

In assay [3] the target is T3, PIK3Cd_h (Homo sapiens, UniProt O00329).
T3 construct: purchased Eurofins DiscoveRx Corporation
T3 sequence (O00329 1-1044): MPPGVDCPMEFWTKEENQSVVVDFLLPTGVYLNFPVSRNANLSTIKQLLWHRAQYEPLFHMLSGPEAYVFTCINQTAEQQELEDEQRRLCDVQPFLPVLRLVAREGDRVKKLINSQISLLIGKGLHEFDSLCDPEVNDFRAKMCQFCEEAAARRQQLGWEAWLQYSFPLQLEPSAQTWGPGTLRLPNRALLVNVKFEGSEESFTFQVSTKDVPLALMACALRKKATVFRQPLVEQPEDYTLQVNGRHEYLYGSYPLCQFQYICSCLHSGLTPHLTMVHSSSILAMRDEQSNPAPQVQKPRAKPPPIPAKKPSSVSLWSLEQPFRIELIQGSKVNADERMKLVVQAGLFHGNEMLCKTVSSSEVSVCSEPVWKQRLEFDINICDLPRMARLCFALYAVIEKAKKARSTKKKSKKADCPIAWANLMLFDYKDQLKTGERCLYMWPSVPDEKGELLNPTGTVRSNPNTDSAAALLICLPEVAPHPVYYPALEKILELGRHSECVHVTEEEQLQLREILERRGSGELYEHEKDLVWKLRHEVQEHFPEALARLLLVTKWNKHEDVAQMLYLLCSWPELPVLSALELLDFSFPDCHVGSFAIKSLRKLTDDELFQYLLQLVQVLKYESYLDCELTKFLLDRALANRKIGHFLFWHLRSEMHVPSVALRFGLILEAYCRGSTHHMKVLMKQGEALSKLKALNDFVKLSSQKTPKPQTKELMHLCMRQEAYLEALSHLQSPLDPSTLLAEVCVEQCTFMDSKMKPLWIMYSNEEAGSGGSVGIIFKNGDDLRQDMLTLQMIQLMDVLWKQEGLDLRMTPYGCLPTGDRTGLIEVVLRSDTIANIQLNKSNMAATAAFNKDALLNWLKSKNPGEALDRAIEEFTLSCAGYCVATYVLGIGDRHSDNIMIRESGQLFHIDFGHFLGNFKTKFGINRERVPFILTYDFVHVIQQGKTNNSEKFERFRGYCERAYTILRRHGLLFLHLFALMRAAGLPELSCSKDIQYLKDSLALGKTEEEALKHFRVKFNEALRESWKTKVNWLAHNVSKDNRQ
Description: Enzyme binding assay (KINOMEscan). Conditions: Eurofins DiscoveRx. The procedure:
as §1

The target of assay [4] is T4, PIK3Cg_h (Homo sapiens, UniProt P48736).
T4 construct: purchased Eurofins DiscoveRx Corporation
Description: Enzyme binding assay (KINOMEscan). The note with it: Eurofins DiscoveRx. The procedure: as §1

The subject of assay [5] is phosphorylation of AKT in HCC70 cells. Description: Cellular assay: phosphorylation of AKT in HCC70 cells (western blotting). The assay is classed as cell-based. Conditions: Homo sapiens, HCC70, 1 h, HCC70 cells, compound 500 nM, 60 min, inhibition of Akt activity from band intensities. In a few lines: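 HCC70 cells treated with compound at 500 nM (0.1% DMSO control) for 60 min at 37 °C; pAKT Ser473 and Thr308 plus total AKT measured by western blot with fluorescent detection. Inhibition from band intensities, binned as + (20–60%), ++ (60–80%), +++ (80–90%), ++++ (>90%).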

Where [6] appears, read: read-out: Index of AI (HCC70) p-AKT Thr 308.
The mark [7] stands for this setting: read-out: Index of AI (HCC70) p-AKT ser 473.

T1 sequence (P42336 whole entry): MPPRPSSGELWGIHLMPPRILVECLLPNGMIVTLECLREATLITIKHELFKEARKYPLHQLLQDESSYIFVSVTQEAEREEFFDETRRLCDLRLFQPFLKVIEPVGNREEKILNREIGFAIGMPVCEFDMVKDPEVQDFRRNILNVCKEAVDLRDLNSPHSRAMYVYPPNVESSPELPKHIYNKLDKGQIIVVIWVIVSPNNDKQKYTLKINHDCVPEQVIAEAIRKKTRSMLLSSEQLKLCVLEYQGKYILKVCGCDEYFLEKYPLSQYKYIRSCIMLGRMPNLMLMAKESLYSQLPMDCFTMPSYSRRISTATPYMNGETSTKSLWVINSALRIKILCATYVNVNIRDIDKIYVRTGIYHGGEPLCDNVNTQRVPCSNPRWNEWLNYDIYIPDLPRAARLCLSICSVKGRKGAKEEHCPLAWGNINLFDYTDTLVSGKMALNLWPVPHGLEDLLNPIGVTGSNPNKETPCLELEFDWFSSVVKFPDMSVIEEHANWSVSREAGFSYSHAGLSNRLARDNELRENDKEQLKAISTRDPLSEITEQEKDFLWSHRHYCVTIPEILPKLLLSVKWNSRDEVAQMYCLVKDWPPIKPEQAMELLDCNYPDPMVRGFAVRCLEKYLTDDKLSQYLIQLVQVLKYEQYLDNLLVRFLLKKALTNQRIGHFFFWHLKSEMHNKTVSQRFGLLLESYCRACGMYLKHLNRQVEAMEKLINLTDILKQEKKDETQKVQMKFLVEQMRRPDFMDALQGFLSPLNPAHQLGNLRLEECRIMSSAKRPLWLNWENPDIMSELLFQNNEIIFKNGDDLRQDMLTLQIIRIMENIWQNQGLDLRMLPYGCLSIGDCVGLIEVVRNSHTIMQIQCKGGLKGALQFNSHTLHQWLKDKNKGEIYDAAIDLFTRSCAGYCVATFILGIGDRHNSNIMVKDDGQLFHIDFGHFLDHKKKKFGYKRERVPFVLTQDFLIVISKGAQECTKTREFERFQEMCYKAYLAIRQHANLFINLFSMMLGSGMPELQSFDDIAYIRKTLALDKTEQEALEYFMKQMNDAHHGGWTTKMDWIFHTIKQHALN
T2 sequence (P42338 whole entry): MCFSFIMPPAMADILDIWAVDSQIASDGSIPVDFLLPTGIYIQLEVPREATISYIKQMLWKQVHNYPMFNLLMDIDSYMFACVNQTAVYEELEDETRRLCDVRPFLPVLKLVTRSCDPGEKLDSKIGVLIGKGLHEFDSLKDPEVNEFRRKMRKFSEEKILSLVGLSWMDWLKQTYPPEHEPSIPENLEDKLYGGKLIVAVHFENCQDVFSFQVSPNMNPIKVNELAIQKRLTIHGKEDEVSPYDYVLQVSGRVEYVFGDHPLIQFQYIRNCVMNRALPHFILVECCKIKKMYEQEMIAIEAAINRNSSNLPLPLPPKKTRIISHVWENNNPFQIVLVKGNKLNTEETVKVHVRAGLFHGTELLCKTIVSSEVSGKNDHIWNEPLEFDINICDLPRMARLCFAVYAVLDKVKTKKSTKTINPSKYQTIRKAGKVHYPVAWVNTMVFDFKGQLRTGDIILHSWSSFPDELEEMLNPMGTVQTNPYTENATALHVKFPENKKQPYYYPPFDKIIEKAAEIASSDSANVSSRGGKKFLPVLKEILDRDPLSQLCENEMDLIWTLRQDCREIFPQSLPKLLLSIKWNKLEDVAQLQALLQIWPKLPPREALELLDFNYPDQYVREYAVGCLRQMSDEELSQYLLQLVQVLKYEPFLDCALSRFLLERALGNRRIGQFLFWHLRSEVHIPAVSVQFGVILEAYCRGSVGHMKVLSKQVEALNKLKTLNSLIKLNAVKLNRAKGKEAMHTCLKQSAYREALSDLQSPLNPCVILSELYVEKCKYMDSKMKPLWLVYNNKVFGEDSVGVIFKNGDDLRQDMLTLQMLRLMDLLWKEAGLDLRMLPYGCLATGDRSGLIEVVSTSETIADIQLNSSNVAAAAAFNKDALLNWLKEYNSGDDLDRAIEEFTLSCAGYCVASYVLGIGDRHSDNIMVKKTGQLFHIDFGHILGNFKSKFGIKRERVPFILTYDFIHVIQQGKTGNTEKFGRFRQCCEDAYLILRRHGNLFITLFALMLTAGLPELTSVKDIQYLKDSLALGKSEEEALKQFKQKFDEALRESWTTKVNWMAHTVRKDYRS
T4 sequence (P48736 whole entry): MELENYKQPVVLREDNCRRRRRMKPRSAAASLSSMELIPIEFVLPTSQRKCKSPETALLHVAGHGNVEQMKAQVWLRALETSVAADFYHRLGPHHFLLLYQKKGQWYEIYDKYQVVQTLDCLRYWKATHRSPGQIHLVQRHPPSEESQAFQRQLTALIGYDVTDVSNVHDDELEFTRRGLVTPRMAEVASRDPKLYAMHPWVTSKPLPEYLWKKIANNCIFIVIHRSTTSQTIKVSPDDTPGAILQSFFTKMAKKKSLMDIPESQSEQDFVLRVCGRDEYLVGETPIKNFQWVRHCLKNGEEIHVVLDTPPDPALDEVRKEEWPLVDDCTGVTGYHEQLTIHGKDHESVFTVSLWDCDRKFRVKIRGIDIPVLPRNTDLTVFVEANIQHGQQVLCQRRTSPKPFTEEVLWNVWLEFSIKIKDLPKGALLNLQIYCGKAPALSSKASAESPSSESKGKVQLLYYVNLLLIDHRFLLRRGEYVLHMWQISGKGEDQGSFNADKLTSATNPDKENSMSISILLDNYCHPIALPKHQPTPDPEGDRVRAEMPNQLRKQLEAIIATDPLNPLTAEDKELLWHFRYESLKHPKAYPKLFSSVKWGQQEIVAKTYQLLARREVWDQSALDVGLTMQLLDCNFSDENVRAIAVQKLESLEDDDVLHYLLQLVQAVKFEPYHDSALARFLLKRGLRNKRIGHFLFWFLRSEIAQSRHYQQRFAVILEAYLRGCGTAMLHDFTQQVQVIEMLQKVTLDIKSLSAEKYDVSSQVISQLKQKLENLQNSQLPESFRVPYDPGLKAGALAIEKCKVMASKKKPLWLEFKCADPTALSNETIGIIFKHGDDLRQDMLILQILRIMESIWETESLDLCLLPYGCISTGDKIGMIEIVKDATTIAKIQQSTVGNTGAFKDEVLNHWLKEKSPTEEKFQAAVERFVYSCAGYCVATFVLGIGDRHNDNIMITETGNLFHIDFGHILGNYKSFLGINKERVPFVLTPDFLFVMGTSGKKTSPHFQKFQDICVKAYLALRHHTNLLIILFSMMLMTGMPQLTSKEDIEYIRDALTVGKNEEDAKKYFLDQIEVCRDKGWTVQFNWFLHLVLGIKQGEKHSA

With `CC(Nc1cc(F)cc(F)c1)c1cc(C(=O)N2CCC(N(C)C)C2)cn2c(=O)cc(N3CCOCC3)nc12` (single isomer, unassigned) [Compound 48-P1], the Kd in assay [1] is above 10000 nM; in assay [2] it was 400 nM; in assay [3], above 10000 nM; in assay [4], above 10000 nM.

With `CC(Nc1cc(F)cc(F)c1)c1cc(N2CCOCC2=O)cc2c(=O)cc(N3CCOCC3)oc12` (stereo not shown) [Compound 10, 4-(8-(1-((3,5-difluorophenyl)amino)ethyl)-2-morpholino-4-oxo-4H-chromen-6-yl)morpholin-3-one], the inhibition at 0.5 µM in assay [5] (setting [6]) and in assay [5] (setting [7]) was above 90% each time. For the same compound, the Kd was determined as 22 nM in assay [1], 0.2 nM in assay [2], 8 nM in assay [3] and 730 nM in assay [4].

With `CNS(=O)(=O)c1cc(C(C)Nc2cc(F)cc(F)c2)c2oc(N3CCOCC3)cc(=O)c2c1` (stereo not shown) [Compound 16, 8-(1-((3,5-difluorophenyl)amino)ethyl)-N-methyl-2-morpholino-4-oxo-4H-chromene-6-sulfonamide], the inhibition at 0.5 µM in assay [5] (setting [6]) and in assay [5] (setting [7]) was above 90% throughout. The Kd in assay [1] was found to be 36 nM; in assay [2], 0.19 nM; in assay [3] it was 8.1 nM; in assay [4], 110 nM.

On to `CC(Nc1cc(F)cc(F)c1)c1cc(NC2=NC(C)(C)CO2)cc2c(=O)cc(N3CCOCC3)oc12` (stereo not shown) [Compound 21, 8-(1-((3,5-difluorophenyl)amino)ethyl)-6-((4,4-dimethyl-4,5-dihydrooxazol-2-yl)amino)-2-morpholino-4H-chromen-4-one], for which the inhibition at 0.5 µM in assay [5] (setting [6]) and in assay [5] (setting [7]) was 80 to 90% each time. The Kd was found to be 45 nM in assay [1], 0.31 nM in assay [2], 58 nM in assay [3] and 2200 nM in assay [4].

Turning to `CN(C)C(=O)c1cc(CN2CCc3c(F)cc(F)cc32)c2oc(N3CCOCC3)cc(=O)c2c1` [Compound 32, 8-((4,6-difluoroindolin-1-yl)methyl)-N,N-dimethyl-2-morpholino-4-oxo-4H-chromene-6-carboxamide], the inhibition at 0.5 µM in assay [5] (setting [6]) and in assay [5] (setting [7]) was above 90% in each case. Moreover, the Kd in assay [1] turned out to be 54 nM; in assay [2], 0.18 nM; in assay [3] it was 19 nM; in assay [4] it was 500 nM.

Regarding `CC1Cc2c(F)cccc2N1Cc1cc(C(=O)N(C)C)cc2c(=O)cc(N3CCOCC3)oc12` (stereo not shown) [Compound 33, 8-((4-fluoro-2-methylindolin-1-yl)methyl)-N,N-dimethyl-2-morpholino-4-oxo-4H-chromene-6-carboxamide], the inhibition at 0.5 µM in assay [5] (setting [6]) and in assay [5] (setting [7]) was above 90% throughout. Besides, the dissociation constant Kd stood at 17 nM in assay [1], 0.49 nM in assay [2], 12 nM in assay [3] and 320 nM in assay [4].

Regarding `CC(Nc1cc(F)cc(F)c1)c1cc(C(=O)N2CCC(N(C)C)C2)cn2c(=O)cc(N3CCOCC3)nc12` (stereo not shown) [Compound 48, 9-(1-((3,5-difluorophenyl)amino)ethyl)-7-(3-(dimethylamino)pyrrolidine-1-carbonyl)-2-morpholino-4H-pyrido[1,2-a]pyrimidin-4-one], the inhibition at 0.5 µM in assay [5] (setting [6]) and in assay [5] (setting [7]) was 80 to 90% throughout. Moreover, the Kd in assay [1] amounted to 130 nM; in assay [2], 0.26 nM; in assay [3], 40 nM; in assay [4], 730 nM.

With `C[C@@H]1CN(c2cc(=O)c3cc(C(=O)N(C)C)cc(CN4CCc5c(F)cc(F)cc54)c3o2)CCO1` [Compound 90, (R)-8-((4,6-difluoroindolin-1-yl)methyl)-N,N-dimethyl-2-(2-methylmorpholino)-4-oxo-4H-chromene-6-carboxamide], the inhibition at 0.5 µM in assay [5] (setting [6]) and in assay [5] (setting [7]) was above 90% in each case. Also, the equilibrium dissociation constant (Kd) in assay [1] amounted to 3.2 nM; in assay [2] it was 0.075 nM; in assay [3], 1.5 nM; in assay [4], 87 nM.

For `C[C@@H]1CN(c2cc(=O)c3cc(C(=O)N(C)C)cc(CN4CCc5c(F)cccc54)c3o2)CCO1` [Compound 91, (R)-8-((4-fluoroindolin-1-yl)methyl)-N,N-dimethyl-2-(2-methylmorpholino)-4-oxo-4H-chromene-6-carboxamide], the inhibition at 0.5 µM in assay [5] (setting [6]) and in assay [5] (setting [7]) was above 90% in each case. In addition, the equilibrium dissociation constant (Kd) in assay [1] stood at 22 nM; in assay [2], 1 nM; in assay [3], 7.4 nM; in assay [4] it was 230 nM.
